Laboratory results published in patent US20240376085A1 (Janssen Pharmaceutica NV, priority 2021, published 2024).

How the values were obtained:
IL-17A : IL-17RA binding = biological target: T1, IL-17A : IL-17RA binding (Homo sapiens, UniProt Q16552, K93Q); assay: IL-17A(FLAG-tagged):IL-17RA(His-tagged) binding disruption Eu-HTRF assay, Protocol 1; details: FLAG-IL-17A 2.5 nM at 2x final concentration; average if tested more than once
T1 construct: Name: IL-17A-Flag
Excerpt: An antibody directed against the FLAG tag of IL-17A (SEQ ID NO: 1) is labeled with the HTRF donor chromophore (Europium-cryptate). IL-17A is present as a dimer that is “locked into” this quaternary structure due to the formation of loop-spanning […] disulfide bridges. The construct of IL-17RA used in the assay excludes the […] portion of the receptor and is fused to a C-terminal 10×His tag (SEQ ID NO:2). An antibody directed against the His tag of the IL-17RA chimera is labeled with the HTRF acceptor chromophore (“D2”). The fluorescence-resonance energy transfer (FRET) depends on the vicinity of the donor chromophore to the acceptor, and interruption of the binding between the IL-17A and IL-17RA causes the reduction/loss of FRET. Therefore, this assay allows to evaluate the compound effect on the binding IL-17A and IL-17RA by monitoring the fluorescence intensity of donor vs acceptor. The assay was run using either Protocol 1 or Protocol 2 as described below.
Protocol 1. 40 nl of 2-fold serial diluted compound solution for total 22 dilution points is added into each well of a 1536-well, white, low-volume, non-binding plate (Greiner #782904), then 2 μl of FLAG tagged IL-17A at 2× final concentration (2.5 nM) in solution of PBS+0.01% Triton-X100 is added to each well. The assay plate is briefly centrifuged then incubated for 1 h at rt. A mixed solution is prepared containing 2×5 nM 10HIS×IL-17RA, 2×2.5 nM Eu-anti-FLAG (CISBIO), 2×5 nM D2-anti-HIS (CISBIO) in PBS+0.01% Triton-X100+200 mM Potassium Fluoride (Sigma 60238) and 2 μl of mix is added to each well of the assay plate. The plate is briefly centrifuged then incubated for 2 h at rt. The HTRF intensities at the wavelength of donor (620 nm) and acceptor (665 nm) are measured using BMG Pherastar. The ratio between intensities at two wavelengths is calculated and plotted against the compound concentration and the data is fitted to a one-site competition model to yield IC50 of the compound.

[1] = system: IL-17A-induced G-CSF production in human normal keratinocyte (NHK); assay: NHK assay: IL-17A-induced G-CSF production in normal human keratinocytes; type: cell-based; details: 24 h, IL-17A 5 ng/mL, average if tested more than once
Procedure: IL-17A acts directly on keratinocytes through binding to dimeric receptor IL-17RA/RC and drives the production of a number of inflammatory mediators known to be elevated in psoriasis lesional tissue. IL-17A small molecule inhibitors that block the IL-17A to interact with IL-17R would inhibit the IL-17A signaling in its targeted cells such as keratinocytes. The compound functional activity is evaluated for its impact on IL-17A-induced G-CSF production in human normal keratinocyte (NHK).
Adult normal human keratinocytes are cultured in keratinocyte growth medium (Lonza) in a flask till reaching ˜90% confluence, then cells are transferred to a 384-well plate at density of 3000-4000 cell/well. Recombinant human IL-17A (Gibco PHC9174) is pre-incubated with titrated compound or DMSO for 1 h at rt then added to the cell culture plate. The final concentration of IL-17A is 5 ng/mL and DMSO is 0.2%, in the culture containing 5% FBS. Cells are cultured/treated for 24 h at 37° C. Supernatants are collected and G-CSF production is measured through HTRF technology using Human G-CSF Kit (CisBio). G-CSF concentration was extrapolated from the standard curve and IC50 is determined using GraphPad Prism. Cell viability is also evaluated using CellTiter-Glo kit (Promega) and effect of compound on cell viability is compared to DMSO control.

T1 sequence (Q16552 with tags, fused parts or gaps K93Q): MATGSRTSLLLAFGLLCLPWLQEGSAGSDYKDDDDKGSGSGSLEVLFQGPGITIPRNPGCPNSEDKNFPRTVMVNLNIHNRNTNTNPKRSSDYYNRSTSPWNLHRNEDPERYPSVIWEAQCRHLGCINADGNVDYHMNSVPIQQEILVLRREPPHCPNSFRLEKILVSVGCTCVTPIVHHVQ

SMILES | IC50 (IL-17A : IL-17RA binding) | IC50 ([1]; Homo sapiens, Keratinocyte) | IC50 [1]
Cn1nccc1C(=O)N[C@H](c1nc2cc(C(NC(=O)CCC(F)(F)F)C3CC3)ccc2[nH]1)C1CCC(F)(F)CC1 (single isomer, unassigned) [Example 54, N—((S)-(5-((S*)-Cyclopropyl(4,4,4-trifluorobutanamido)methyl)-1H-benzo[d]imidazol-2-yl)(4,4-difluorocyclohexyl)methyl)-1-methyl-1H-pyrazole-5-carboxamide] | > 100 nM | < 50 nM | 
Cn1nccc1C(=O)N[C@H](c1nc2cc(C(NC(=O)CCC(F)(F)F)C3CC3)ccc2[nH]1)C1CCC(F)(F)CC1 (single isomer, unassigned) [Example 55, N—((S)-(5-((R*)-Cyclopropyl(4,4,4-trifluorobutanamido)methyl)-1H-benzo[d]imidazol-2-yl)(4,4-difluorocyclohexyl)methyl)-1-methyl-1H-pyrazole-5-carboxamide] | > 100 nM |  | > 100 nM
CC(C)c1c(C(=O)NC(CC(C)(C)C(F)(F)F)c2nc3cc([C@@H](C)NC(=O)CCC(F)(F)F)ccc3[nH]2)no[n+]1[O-] (single isomer, unassigned) [Example 56, 3-Isopropyl-4-(((S*)-4,4,4-trifluoro-3,3-dimethyl-1-(5-((R)-1-(4,4,4-trifluorobutanamido)ethyl)-1H-benzo[d]imidazol-2-yl)butyl)carbamoyl)-1,2,5-oxadiazole 2-oxide] | 50 to 100 nM | 50 to 100 nM | 
CC(C)c1nonc1C(=O)NC(CC(C)(C)C(F)(F)F)c1nc2cc([C@@H](C)NC(=O)CCC(F)(F)F)ccc2[nH]1 (single isomer, unassigned) [Example 57, 4-Isopropyl-N—((S*)-4,4,4-trifluoro-3,3-dimethyl-1-(5-((R)-1-(4,4,4-trifluorobutanamido)ethyl)-1H-benzo[d]imidazol-2-yl)butyl)-1,2,5-oxadiazole-3-carboxamide] | < 50 nM | < 50 nM | 
CC(Cn1ncc(C(=O)N[C@H](c2nc3ccc([C@@H](C)NC(=O)CCC(F)(F)F)cc3[nH]2)C2CCC(F)(F)CC2)n1)C(F)(F)F (single isomer, unassigned) [Example 69, N—((S)-(4,4-Difluorocyclohexyl)(6-((R)-1-(4,4,4-trifluorobutanamido)ethyl)-1H-benzo[d]imidazol-2-yl)methyl)-2-((R*)-3,3,3-trifluoro-2-methylpropyl)-2H-1,2,3-triazole-4-carboxamide] | > 100 nM | > 100 nM | 
CC(Cn1ncc(C(=O)N[C@H](c2nc3ccc([C@@H](C)NC(=O)CCC(F)(F)F)cc3[nH]2)C2CCC(F)(F)CC2)n1)C(F)(F)F (single isomer, unassigned) [Example 70, N—((S)-(4,4-Difluorocyclohexyl)(6-((R)-1-(4,4,4-trifluorobutanamido)ethyl)-1H-benzo[d]imidazol-2-yl)methyl)-2-((S*)-3,3,3-trifluoro-2-methylpropyl)-2H-1,2,3-triazole-4-carboxamide] | > 100 nM |  | > 100 nM
CC(Cn1nncc1C(=O)N[C@H](c1nc2ccc([C@@H](C)NC(=O)CCC(F)(F)F)cc2[nH]1)C1CCC(F)(F)CC1)C(F)(F)F (single isomer, unassigned) [Example 71, N—((S)-(4,4-Difluorocyclohexyl)(6-((R)-1-(4,4,4-trifluorobutanamido)ethyl)-1H-benzo[d]imidazol-2-yl)methyl)-1-((R*)-3,3,3-trifluoro-2-methylpropyl)-1H-1,2,3-triazole-5-carboxamide] | > 100 nM | > 100 nM | 
CC(Cn1nncc1C(=O)N[C@H](c1nc2ccc([C@@H](C)NC(=O)CCC(F)(F)F)cc2[nH]1)C1CCC(F)(F)CC1)C(F)(F)F (single isomer, unassigned) [Example 72, N—((S)-(4,4-Difluorocyclohexyl)(6-((R)-1-(4,4,4-trifluorobutanamido)ethyl)-1H-benzo[d]imidazol-2-yl)methyl)-1-((S*)-3,3,3-trifluoro-2-methylpropyl)-1H-1,2,3-triazole-5-carboxamide] | > 100 nM |  | > 100 nM
